Data as given in patent US9409908B2 (priority 2012, dated 2016).
Structures can show the parent of a compound that is named as a salt.

The compounds below were run against purified human Factor XIa (Homo sapiens (Human), UniProt P03951) (assay: biochemical). Conditions: TFA salt; read-out: Factor XIa Ki.
Assay type: biochemical

purified human Factor XIa, sequence (P03951 whole entry, looked up): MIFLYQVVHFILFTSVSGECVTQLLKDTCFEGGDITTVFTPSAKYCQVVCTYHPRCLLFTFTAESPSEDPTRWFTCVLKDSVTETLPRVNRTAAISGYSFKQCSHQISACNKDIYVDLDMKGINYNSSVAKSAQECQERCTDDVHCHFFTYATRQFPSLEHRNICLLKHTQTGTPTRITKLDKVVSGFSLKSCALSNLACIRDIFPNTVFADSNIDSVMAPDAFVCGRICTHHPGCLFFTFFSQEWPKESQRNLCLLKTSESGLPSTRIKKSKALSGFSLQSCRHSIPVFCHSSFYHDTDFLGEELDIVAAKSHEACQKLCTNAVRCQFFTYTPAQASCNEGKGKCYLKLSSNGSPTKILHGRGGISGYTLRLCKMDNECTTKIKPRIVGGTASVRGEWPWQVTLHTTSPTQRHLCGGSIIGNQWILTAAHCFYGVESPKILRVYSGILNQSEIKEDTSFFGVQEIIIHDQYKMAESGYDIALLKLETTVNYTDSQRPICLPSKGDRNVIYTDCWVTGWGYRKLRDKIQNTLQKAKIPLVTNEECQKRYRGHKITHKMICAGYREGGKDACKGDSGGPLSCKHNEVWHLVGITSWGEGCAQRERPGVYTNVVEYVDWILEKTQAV
purified human Factor XIa, sequence (P03951 whole entry partner, looked up): as the sequence (P03951 whole entry, looked up) above

Compound CC1CCCC(N2CCC(c3c(F)ccc(Cl)c3F)=CC2=O)c2cc(ccn2)-c2ccc(C#N)cc2NC1=O (stereo in doubt) [Example 23, (14R)-14-[4-(3-Chloro-2,6-difluorophenyl)-6-oxo-1,2,3,6-tetrahydropyridin-1-yl]-10-methyl-9-oxo-8,16-diazatricyclo[13.3.1.0^2,7]nonadeca-1(18),2,4,6,15(19),16-hexaene-5-carbonitrile, TFA salt] has a Ki of 93.2 nM.

Same assay, conditions: read-out: Factor XIa Ki

Point of comparison: C[C@@H]1CCC[C@H](n2ccc(-c3c(F)ccc(Cl)c3F)cc2=O)c2cc(ccn2)-c2ccc(Nc3ncccn3)cc2NC1=O [Example 92, (10R,14S)-14-[4-(3-Chloro-2,6-difluorophenyl)-2-oxo-1,2-dihydropyridin-1-yl]-10-methyl-5-[(pyrimidin-2-yl)amino]-8,16-diazatricyclo[13.3.1.0^2,7]nonadeca-1(19),2(7),3,5,15,17-hexaen-9-one, 2 TFA salt], Ki 0.56 nM. Against it:
- C[C@@H]1CCC[C@H](N2CCC(c3c(F)ccc(Cl)c3F)=CC2=O)c2cc(ccn2)-c2cc(-c3nn[nH]n3)ccc2NC1=O [Example 140, (10R,14S)-14-[4-(3-chloro-2,6-difluorophenyl)-6-oxo-1,2,3,6-tetrahydropyridin-1-yl]-10-methyl-4-(2H-1,2,3,4-tetrazol-5-yl)-8,16-diazatricyclo[13.3.1.0^2,7]nonadeca-1(19),2(7),3,5,15,17-hexaen-9-one] — 2.4-fold higher, 1.34 nM
- C[C@@H]1CCC[C@H](N2CCC(c3c(F)ccc(Cl)c3F)=CC2=O)c2cc(ccn2)-c2ccc(N)cc2NC1=O [Example 12, (10R,14S)-5-Amino-14-[4-(3-chloro-2,6-difluorophenyl)-6-oxo-1,2,3,6-tetrahydropyridin-1-yl]-10-methyl-8,16-diazatricyclo[13.3.1.0^2,7]nonadeca-1(19),2,4,6,15,17-hexaen-9-one] — 2.7-fold higher, 1.5 nM
- C[C@@H]1CCC[C@H](N2CCC(c3c(F)ccc(Cl)c3F)=CC2=O)c2cc(ccn2)-c2ccc(NS(C)(=O)=O)cc2NC1=O [Example 76, N-[(10R,14S)-14-[4-(3-Chloro-2,6-difluorophenyl)-6-oxo-1,2,3,6-tetrahydropyridin-1-yl]-10-methyl-9-oxo-8,16-diazatricyclo[13.3.1.0^2,7]nonadeca-1(19),2(7),3,5,15,17-hexaen-5-yl]methanesulfonamide, TFA salt] — 14-fold higher, 7.89 nM
- COC(=O)c1cc2c(cc1N)NC(=O)[C@H](C)CCC[C@H](N1CCC(c3c(F)ccc(Cl)c3F)=CC1=O)c1cc-2ccn1 [Example 197, Methyl (10R,14S)-5-amino-14-[4-(3-chloro-2,6-difluorophenyl)-6-oxo-1,2,3,6-tetrahydropyridin-1-yl]-10-methyl-9-oxo-8,16-diazatricyclo[13.3.1.0^2,7]nonadeca-1(19),2,4,6,15,17-hexaene-4-carboxylate, 2 TFA salt] — 8.1-fold higher, 4.54 nM
- COC(=O)c1ccc2c(c1)-c1cccc(c1)[C@@H](N1CCC(c3c(C(C)=O)ccc(Cl)c3F)=CC1=O)CCC[C@@H](C)C(=O)N2 [Example 172, Methyl (10R,14S)-14-[4-(6-acetyl-3-chloro-2-fluorophenyl)-6-oxo-1,2,3,6-tetrahydropyridin-1-yl]-10-methyl-9-oxo-8-azatricyclo[13.3.1.0^2,7]nonadeca-1(18),2,4,6,15(19),16-hexaene-4-carboxylate] — 250-fold higher, 140 nM
- CC(C)[C@@H]1CCC[C@H](N2CCC(c3c(-n4cnnn4)ccc(Cl)c3F)=CC2=O)c2cc(ccn2)-c2ccccc2NC1=O [Example 100, (10S,14S)-14-{4-[3-chloro-2-fluoro-6-(1H-1,2,3,4-tetrazol-1-yl)phenyl]-6-oxo-1,2,3,6-tetrahydropyridin-1-yl}-10-(propan-2-yl)-8,16-diazatricyclo[13.3.1.0^2,7]nonadeca-1(18),2,4,6,15(19),16-hexaen-9-one, TFA salt] — 6.2-fold lower, 0.09 nM
- CC(=O)c1ccc(Cl)c(F)c1C1=CC(=O)N([C@H]2CCC[C@@H](C)C(=O)Nc3ccccc3-c3ccnc2c3)CC1 [Example 48, (10R,14S)-14-[4-(6-Acetyl-3-chloro-2-fluorophenyl)-6-oxo-1,2,3,6-tetrahydropyridin-1-yl]-10-methyl-8,16-diazatricyclo[13.3.1.0^2,7]nonadeca-1(19),2,4,6,15,17-hexaen-9-one, TFA salt] — 8.5-fold higher, 4.77 nM
- C[C@@H]1CCC[C@H](N2CCC(c3c(F)ccc(Cl)c3F)=CC2=O)c2cc(ccn2)-c2ccc(NC3O[C@H](CO)[C@@H](O)[C@H](O)[C@@H]3N)cc2NC1=O (stereo partly drawn) [Example 127, (10R,14S)-5-{[(3S,4R,5S,6R)-3-amino-4,5-dihydroxy-6-(hydroxymethyl)oxan-2-yl]amino)-14-[4-(3-chloro-2,6-difluorophenyl)-6-oxo-1,2,3,6-tetrahydropyridin-1-yl]-10-methyl-8,16-diazatricyclo[13.3.1.0^2,7]nonadeca-1(19),2,4,6,15,17-hexaen-9-one] — 6.4-fold higher, 3.61 nM
- C[C@@H]1CCC[C@H](N2CCC(c3c(F)ccc(Cl)c3F)=CC2=O)c2cc(ccn2)-c2cc(F)ccc2NC1=O [Example 145, (10R,14S)-14-[4-(3-chloro-2,6-difluorophenyl)-6-oxo-1,2,3,6-tetrahydropyridin-1-yl]-4-fluoro-10-methyl-8,16-diazatricyclo[13.3.1.0^2,7]nonadeca-1(19),2(7),3,5,15,17-hexaen-9-one] — 33-fold higher, 18.6 nM
- C[C@@H]1CCC[C@H](N2CCC(c3c(F)ccc(Cl)c3F)=CC2=O)c2cc(ccn2)-c2ccc(O)cc2NC1=O [Example 18, (10R,14S)-14-[4-(3-Chloro-2,6-difluorophenyl)-6-oxo-1,2,3,6-tetrahydropyridin-1-yl]-5-hydroxy-10-methyl-8,16-diazatricyclo[13.3.1.0^2,7]nonadeca-1(19),2,4,6,15,17-hexaen-9-one, TFA salt] — 2.2-fold higher, 1.25 nM
- C[C@@H]1CCC[C@H](N2CCC(c3c(C(F)(F)F)ccc(Cl)c3F)=CC2=O)c2cc(ccn2)-c2ccccc2NC1=O [Example 67, (10R,14S)-14-{4-[3-Chloro-2-fluoro-6-(trifluoromethyl)phenyl]-6-oxo-1,2,3,6-tetrahydropyridin-1-yl}-10-methyl-8,16-diazatricyclo[13.3.1.0^2,7]nonadeca-1(19),2(7),3,5,15,17-hexaen-9-one, TFA salt] — 5.3-fold higher, 2.98 nM
- C[C@@H]1CCC[C@H](N2CCC(c3c(F)ccc(Cl)c3F)=CC2=O)c2cc(ccn2)-c2ccc(NC(=O)CC(=O)OC(C)(C)C)cc2NC1=O [Example 87, tert-Butyl 2-{[(10R,14S)-14-[4-(3-chloro-2,6-difluorophenyl)-6-oxo-1,2,3,6-tetrahydropyridin-1-yl]-10-methyl-9-oxo-8,16-diazatricyclo[13.3.1.0^2,7]nonadeca-1(19),2,4,6,15,17-hexaen-5-yl]carbamoyl}acetate, TFA salt] — 31-fold higher, 17.3 nM
- C[C@@H]1CCC[C@H](N2CCC(c3c(F)ccc(Cl)c3F)=CC2=O)c2cc(ccn2)-c2ccc(Nc3nnc(-c4ccco4)o3)cc2NC1=O [Example 103, (10R,14S)-14-[4-(3-Chloro-2,6-difluorophenyl)-6-oxo-1,2,3,6-tetrahydropyridin-1-yl]-5-{[5-(furan-2-yl)-1,3,4-oxadiazol-2-yl]amino}-10-methyl-8,16-diazatricyclo[13.3.1.0^2,7]nonadeca-1(19),2(7),3,5,15,17-hexaen-9-one, TFA salt] — 11-fold higher, 6.13 nM
